For this test, the target named is T1, human PF4 (Homo sapiens, UniProt P02776).
T1 construct: PF4 is a 70 amino acid, lysine-rich 7.8 kDa platelet-specific protein; made in house; host or cells: Escherichia coli BL21DE3 pLysS (pT7-7) and/or Drosophila S2 cells
T1 sequence (P02776 32-101): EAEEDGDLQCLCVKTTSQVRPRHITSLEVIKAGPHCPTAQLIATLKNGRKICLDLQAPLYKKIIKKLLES
Description: Inhibition of PF4 tetramer formation (BS3 cross-linking, SDS-PAGE). Type of test: biochemical. To be noted: for inhibition at 5 µM: 5 μM inhibitor; for inhibition at 5 µM / inhibition at 10 µM / inhibition at 1 µM / inhibition at 3 µM: read-out: % inhibition of PF4 tetramer formation at single concentration of inhibitor; for inhibition at 10 µM: 10 μM inhibitor (column A); for pIC50: read-out: IC50 of PF4 tetramer formation inhibition; for inhibition at 1 µM: 1 μM inhibitor; for inhibition at 3 µM: 3 μM inhibitor (column A). The procedure, abridged:
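Recombinant human wild-type PF4 (E. coli-expressed, heparin-purified), 10 μg/ml in PBS, incubated with compound 15 min at 37° C or 60 min at room temperature, then cross-linked with 0.2 mM BS3 for 30 min at room temperature. Reducing 12% SDS-PAGE; bands quantified as % tetramer, trimer, dimer, monomer versus compound-free control.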

pIC50: −log10 of the molar value.

As to `CO[C@H](C)[C@H](N)C(=O)C1C(=O)c2ccc(C(=O)c3ccc4c(c3)C(=O)C(C(=O)[C@@H](N)[C@@H](C)OC)C4=O)cc2C1=O` (stereo partly drawn) [Example 128, 2-[(2S,3R)-2-amino-3-methoxybutanoyl]-5-{2-[(2S,3R)-2-amino-3-methoxybutanoyl]-1,3-dioxo-2,3-dihydro-1H-indene-5-carbonyl}-2,3-dihydro-1H-indene-1,3-dione], the inhibition at 5 µM turned out to be 51%, the inhibition at 10 µM turned out to be 87% and the pIC50 was 5.11.

With `CCCCC(=O)C1C(=O)c2ccc(C(=O)c3ccc4c(c3)C(=O)C(C(=O)CCCC)C4=O)cc2C1=O` (centres unmarked) [Example 153, 5-(1,3-dioxo-2-pentanoyl-2,3-dihydro-1H-indene-5-carbonyl)-2-pentanoyl-2,3-dihydro-1H-indene-1,3-dione], the inhibition at 5 µM amounted to 100%, the inhibition at 10 µM turned out to be 100% and the pIC50 is 5.62.

With `COC(=O)c1ccccc1NC(=O)C1C(=O)c2ccc(C(=O)c3ccc4c(c3)C(=O)C(C(=O)Nc3ccccc3C(=O)OC)C4=O)cc2C1=O` (centres unmarked) [Example 99, methyl 2-[5-(2-{[2-(methoxycarbonyl)phenyl]carbamoyl}-1,3-dioxo-2,3-dihydro-1H-indene-5-carbonyl)-1,3-dioxo-2,3-dihydro-1H-indene-2-amido]benzoate], the inhibition at 5 µM was determined as 44%, the inhibition at 10 µM was 100% and the pIC50 is 4.89.

Consider `O=C(c1ccc2c(c1)C(=O)C(C(=O)[C@@H]1C[C@H]1C(=O)O)C2=O)c1ccc2c(c1)C(=O)C(C(=O)[C@@H]1C[C@H]1C(=O)O)C2=O` (stereo in doubt) [Example 222, (1R,2R)-2-(5-{2-[(1R,2R)-2-carboxycyclopropanecarbonyl]-1,3-dioxo-2,3-dihydro-1H-indene-5-carbonyl}-1,3-dioxo-2,3-dihydro-1H-indene-2-carbonyl)cyclopropane-1-carboxylic acid], for which the inhibition at 5 µM was 94%, the inhibition at 10 µM turned out to be 97% and the pIC50 was 5.85.

Consider `COC(=O)CCCC(=O)C1C(=O)c2ccc(-c3ccc4c(c3)C(=O)C(C(=O)CCCC(=O)OC)C4=O)cc2C1=O` (centres unmarked) [Example 226, methyl 5-[2′-(5-methoxy-5-oxopentanoyl)-1,1′,3,3′-tetraoxo-1H,1′H,2H,2′H,3H,3′H-[5,5′-biinden]-2-yl]-5-oxopentanoate], for which the inhibition at 5 µM was determined as 77%, the inhibition at 10 µM worked out at 92% and the pIC50 was 5.40.

Regarding `CC(C)(C)OC(=O)NCCC(=O)C1C(=O)c2ccc(C(=O)c3ccc4c(c3)C(=O)C(C(=O)CCNC(=O)OC(C)(C)C)C4=O)cc2C1=O` (centres unmarked) [Example 163, tert-butyl N-(3-{5-[2-(3-{[(tert-butoxy)carbonyl]amino}propanoyl)-1,3-dioxo-2,3-dihydro-1H-indene-5-carbonyl]-1,3-dioxo-2,3-dihydro-1H-inden-2-yl}-3-oxopropyl)carbamate], the inhibition at 5 µM stood at 87%, the inhibition at 10 µM was 93% and the negative-log IC50 (pIC50) was 4.89.

Turning to `O=C(COC1CCCCC1)C1C(=O)c2ccc(S(=O)(=O)c3ccc4c(c3)C(=O)C(C(=O)COC3CCCCC3)C4=O)cc2C1=O` (centres unmarked) [Example 232, 2-[2-(cyclohexyloxy)acetyl]-5-({2-[2-(cyclohexyloxy)acetyl]-1,3-dioxo-2,3-dihydro-1H-inden-5-yl}sulfonyl)-2,3-dihydro-1H-indene-1,3-dione], the inhibition at 1 µM was found to be 10% and the inhibition at 3 µM is 67%.

On to `CN1CCC(C(=O)C2C(=O)c3ccc(C(=O)c4ccc5c(c4)C(=O)C(C(=O)C4CCN(C)CC4)C5=O)cc3C2=O)CC1` (centres unmarked) [Example 266, 2-(1-methylpiperidine-4-carbonyl)-5-[2-(1-methylpiperidine-4-carbonyl)-1,3-dioxo-2,3-dihydro-1H-indene-5-carbonyl]-2,3-dihydro-1H-indene-1,3-dione], for which the inhibition at 3 µM was 25%.

In the case of `O=C(CC1CCCC1)C1C(=O)c2ccc(S(=O)(=O)c3ccc4c(c3)C(=O)C(C(=O)CC3CCCC3)C4=O)cc2C1=O` (centres unmarked) [Example 142, 2-(2-cyclopentylacetyl)-5-{[2-(2-cyclopentylacetyl)-1,3-dioxo-2,3-dihydro-1H-inden-5-yl]sulfonyl}-2,3-dihydro-1H-indene-1,3-dione], the inhibition at 5 µM worked out at 95%, the inhibition at 10 µM worked out at 94% and the pIC50 was 4.74.

As for `COCCOCC(=O)C1C(=O)c2ccc(C(=O)c3ccc4c(c3)C(=O)C(C(=O)COCCOC)C4=O)cc2C1=O` (centres unmarked) [Example 395, 2-[2-(2-methoxyethoxy)acetyl]-5-{2-[2-(2-methoxyethoxy)acetyl]-1,3-dioxo-2,3-dihydro-1H-indene-5-carbonyl}-2,3-dihydro-1H-indene-1,3-dione], the inhibition at 1 µM was found to be 2% and the inhibition at 3 µM was 13%.

Take `CSCC(=O)C1C(=O)c2ccc(Oc3ccc4c(c3)C(=O)C(C(=O)CSC)C4=O)cc2C1=O` (centres unmarked) [Example 280, 2-[2-(methylsulfanyl)acetyl]-5-({2-[2-(methylsulfanyl)acetyl]-1,3-dioxo-2,3-dihydro-1H-inden-5-yl}oxy)-2,3-dihydro-1H-indene-1,3-dione]: the inhibition at 1 µM worked out at 23%, the inhibition at 3 µM turned out to be 43% and the negative-log IC50 (pIC50) was 5.52.

Consider `CC(C)(C)OC(=O)N1CC[C@H](C(=O)C2C(=O)c3ccc(S(=O)(=O)c4ccc5c(c4)C(=O)C(C(=O)[C@H]4CCN(C(=O)OC(C)(C)C)C4)C5=O)cc3C2=O)C1` (stereo partly drawn) [Example 374, tert-butyl (3S)-3-[5-({2-[(3S)-1-[(tert-butoxy)carbonyl]pyrrolidine-3-carbonyl]-1,3-dioxo-2,3-dihydro-1H-inden-5-yl}sulfonyl)-1,3-dioxo-2,3-dihydro-1H-indene-2-carbonyl]pyrrolidine-1-carboxylate], for which the inhibition at 1 µM was determined as 22% and the inhibition at 3 µM is 49%.

As to `O=C(c1ccc2c(c1)C(=O)C(C(=O)Nc1cccc(Cl)c1)C2=O)c1ccc2c(c1)C(=O)C(C(=O)Nc1cccc(Cl)c1)C2=O` (centres unmarked) [Example 79, N-(3-chlorophenyl)-5-{2-[(3-chlorophenyl)carbamoyl]-1,3-dioxo-2,3-dihydro-1H-indene-5-carbonyl}-1,3-dioxo-2,3-dihydro-1H-indene-2-carboxamide], the pIC50 is 6.00.

Regarding `CCOCC(=O)C1C(=O)c2ccc(Oc3ccc4c(c3)C(=O)C(C(=O)COCC)C4=O)cc2C1=O` (centres unmarked) [Example 247, 2-(2-ethoxyacetyl)-5-{[2-(2-ethoxyacetyl)-1,3-dioxo-2,3-dihydro-1H-inden-5-yl]oxy}-2,3-dihydro-1H-indene-1,3-dione], the inhibition at 1 µM was determined as 19%, the inhibition at 3 µM is 27% and the pIC50 is 5.52.

For `CCCCC(=O)C1C(=O)c2ccc(S(=O)(=O)c3ccc4c(c3)C(=O)C(C(=O)CCCC)C4=O)cc2C1=O` (centres unmarked) [Example 154, 5-[(1,3-dioxo-2-pentanoyl-2,3-dihydro-1H-inden-5-yl)sulfonyl]-2-pentanoyl-2,3-dihydro-1H-indene-1,3-dione], the inhibition at 5 µM came out at 100%, the inhibition at 10 µM came out at 100% and the pIC50 was 5.92.

For `O=C(c1ccc2c(c1)C(=O)C(C(=O)NCC1CCOC1)C2=O)c1ccc2c(c1)C(=O)C(C(=O)NCC1CCOC1)C2=O` (centres unmarked) [Example 363, 5-(1,3-dioxo-2-{[(oxolan-3-yl)methyl]carbamoyl}-2,3-dihydro-1H-indene-5-carbonyl)-1,3-dioxo-N-[(oxolan-3-yl)methyl]-2,3-dihydro-1H-indene-2-carboxamide], the inhibition at 1 µM worked out at 29%, the inhibition at 3 µM amounted to 63% and the pIC50 is 5.40.

Consider `Cc1cccc(NC(=O)C2C(=O)c3ccc(C(=O)c4ccc5c(c4)C(=O)C(C(=O)Nc4cccc(C)c4)C5=O)cc3C2=O)c1` (centres unmarked) [Example 38, 5,5′-carbonylbis(1,3-dioxo-n-(m-tolyl)-2,3-dihydro-1h-indene-2-carboxamide)], for which the inhibition at 5 µM was found to be 74%, the inhibition at 10 µM is 88% and the negative logarithm of the IC50 (pIC50) was 5.97.

Consider `O=C1CC(=O)c2cc(-c3ccc4c(c3)C(=O)CC4=O)ccc21` [Example 75, 1h,1′h,2h,2′h,3h,3′h-[5,5′-biindene]-1,1′,3,3′-tetrone], for which the inhibition at 5 µM came out at 54% and the inhibition at 10 µM was 85%.

As for `O=C(CN1CCCC1=O)C1C(=O)c2ccc(C#Cc3ccc4c(c3)C(=O)C(C(=O)CN3CCCC3=O)C4=O)cc2C1=O` (centres unmarked) [Example 293, 5-(2-{1,3-dioxo-2-[2-(2-oxopyrrolidin-1-yl)acetyl]-2,3-dihydro-1H-inden-5-yl}ethynyl)-2-[2-(2-oxopyrrolidin-1-yl)acetyl]-2,3-dihydro-1H-indene-1,3-dione], the inhibition at 1 µM was 28% and the inhibition at 3 µM was determined as 43%.

As for `CC(=O)OC[C@H]1O[C@@H](OC(C)=O)[C@H](NC(=O)C2C(=O)c3ccc(C(=O)c4ccc5c(c4)C(=O)C(C(=O)N[C@H]4[C@H](OC(C)=O)O[C@H](COC(C)=O)[C@@H](OC(C)=O)[C@@H]4OC(C)=O)C5=O)cc3C2=O)[C@@H](OC(C)=O)[C@@H]1OC(C)=O` (stereo partly drawn) [Example 398, [(2R,3S,4R,5R,6S)-3,4,6-tris(acetyloxy)-5-[5-(1,3-dioxo-2-{[(2S,3R,4R,5S,6R)-2,4,5-tris(acetyloxy)-6-[(acetyloxy)methyl]oxan-3-yl]carbamoyl}-2,3-dihydro-1H-indene-5-carbonyl)-1,3-dioxo-2,3-dihydro-1H-indene-2-amido]oxan-2-yl]methyl acetate], the inhibition at 1 µM stood at 6% and the inhibition at 3 µM came out at 23%.

As a reminder, the pIC50 is the negative decadic logarithm of the IC50, by convention in mol/L.

These data come from patent US20250281424A1 (New York Blood Center, Inc, priority 2020, published 2025).
